Where two headings read alike, the source gives them in different places.
Legend:
[1] = test system: KMS-12-PE Bcl-2 G101V; test: In vitro cytotoxicity CellTiter-Glo 48 h, KMS-12-PE Bcl-2 G101V; assay type: cell-based; conditions: for Ratio (G101V/WT): C50 KMS-12-PE Bcl-2 G101V over C50 KMS-12-PE Bcl-2 WT; for IC50: Homo sapiens, KMS-12-PE, 48 h, CellTiter-Glo, C50 = concentration needed to reach 50% of the cellular viability
Summary of the method: (§1)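 KMS-12-PE myeloma cells lentivirally transduced with Bcl-2 WT or G101V (TagRFP-sorted), exposed to compound 11-point dose-response for 48 h at 37 °C, 5% CO2. Viability read by CellTiter-Glo ATP luminescence; C50 is the concentration giving 50% cellular viability.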

[2] = biological target: BCL2 D103Y (Homo sapiens, UniProt P10415, D103Y); test: TR-FRET competitive binding assay, BCL2 D103Y; conditions: Ki determined from IC50, read-out: TR_FRET EKI_Bcl2 D103Y
Summary of the method: (§2)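 Ki derived from IC50 (11-point dilution, 520/495 nm emission ratio) for displacing a fluorescein-labelled PUMA peptide (2 or 20 nM). Target was 0.5 nM E. coli-expressed Halo-tagged BCL2 (1-207) or BCLXL (2-196), terbium-labelled on Halo. Incubation 2 h at 23°C in pH 7.5 Hepes with 150 mM NaCl and 5% DMSO.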

[3] = biological target: BCL2 WT (Homo sapiens (Human), UniProt P10415); test: TR-FRET competitive binding assay, BCL2 WT
Summary of the method: as §2

[4] = biological target: BCL2 G101V (Homo sapiens, UniProt P10415, G101V); test: TR-FRET competitive binding assay, BCL2 G101V; conditions: BCL2 G101V; Ki determined from IC50; read-out: TR_FRET EKI_Bcl2 G101V
Summary of the method: as §2

[5] = test system: BCL2 G101V; test: TR-FRET competitive binding assay, BCL2 G101V; design: species or system human; conditions: for TR_FRET EKI G101V/WT selectivty ratio: ratio Ki BCL2 G101V / Ki BCL2 WT; for TR_FRET EKI G101V/WT selectivty: ratio of Ki BCL2 G101V to BCL2 WT
Summary of the method: as §2

[6] = biological target: BCLXL WT (Homo sapiens (Human), UniProt Q07817); test: TR-FRET competitive binding assay, BCLXL WT; conditions: for Ki: BCLXL WT, Ki determined from IC50, read-out: TR_FRET EKI BclxL; for TR_FRET EKI BCLxL/WT selectivty ratio: ratio Ki BCLxL / Ki BCL2 WT; for TR_FRET EKI BCLxL/WT selectivty: ratio of Ki BCLxL to BCL2 WT
Summary of the method: as §2

[7] = test system: KMS-12-PE Bcl-2 WT; test: In vitro cytotoxicity CellTiter-Glo 48 h, KMS-12-PE Bcl-2 WT; assay type: cell-based; conditions: Homo sapiens, KMS-12-PE, C50 = concentration needed to reach 50% of the cellular viability
Summary of the method: as §1

[8] = Ki determined from IC50, read-out: TR_FRET EKI_Bcl2 WT
[9] = Ki determined from IC50, read-out: TR_FRET EKI_Bcl2

Chain of BCLXL WT (Q07817 other isoform, or with tags, fused parts or gaps): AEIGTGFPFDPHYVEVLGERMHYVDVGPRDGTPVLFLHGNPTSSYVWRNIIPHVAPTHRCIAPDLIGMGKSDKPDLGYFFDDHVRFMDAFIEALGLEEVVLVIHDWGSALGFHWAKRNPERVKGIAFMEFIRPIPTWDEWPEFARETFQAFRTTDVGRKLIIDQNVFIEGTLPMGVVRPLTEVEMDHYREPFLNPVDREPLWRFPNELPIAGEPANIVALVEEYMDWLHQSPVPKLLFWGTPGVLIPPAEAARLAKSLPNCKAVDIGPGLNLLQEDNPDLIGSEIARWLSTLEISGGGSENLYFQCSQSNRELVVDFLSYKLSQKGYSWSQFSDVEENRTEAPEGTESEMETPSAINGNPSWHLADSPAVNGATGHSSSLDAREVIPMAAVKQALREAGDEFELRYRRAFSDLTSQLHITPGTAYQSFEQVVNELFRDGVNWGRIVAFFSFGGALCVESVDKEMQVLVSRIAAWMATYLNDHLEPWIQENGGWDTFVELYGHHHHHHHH

In the case of `Cc1c(C(=O)N(c2ccc(O)cc2)c2ccc(OC(C)C)c(C#N)c2)cc(-c2cc3c(cc2C(=O)N2Cc4ccccc4C[C@H]2CN2CCCCC2)CN(C(=O)Cc2ccc(OCCN4CCOCC4)cc2F)CC3)n1C` [Example 168, N-(3-cyano-4-isopropoxyphenyl)-5-[2-(2-{2-fluoro-4-[2-(morpholin-4-yl)ethoxy]phenyl}acetyl)-7-{[(3S)-3-(piperidin-1-ylmethyl)-3,4-dihydro-1H-isoquinolin-2-yl]carbonyl}-3,4-dihydro-1H-isoquinolin-6-yl]-N-(4-hydroxyphenyl)-1,2-dimethylpyrrole-3-carboxamide], the “Ratio (G101V/WT)” value [1] is reported as 7.4599, the IC50 [1] is reported as 0.0558 µM and the Ki [2] is reported as 0.22 nM. For the same molecule, the Ki [3, 8] was 0.11 nM, the Ki [4] was 0.5 nM and the “TR_FRET EKI G101V/WT selectivty ratio” value [5] was 4.7. The Ki [6] was 11 nM, the “TR_FRET EKI BCLxL/WT selectivty ratio” value [6] was 100.0 and the IC50 [7] was 0.0075 µM.
With `CCOC[C@@H]1Cc2ccccc2CN1C(=O)c1cc2c(cc1-c1cc(C(=O)N(c3ccc(O)cc3)c3cc(C#N)n(C)c3C)c(C)n1C)CCN(C(=O)Cc1ccc(OCCN3CCOCC3)cc1F)C2` [Example 169, N-(5-cyano-1,2-dimethyl-pyrrol-3-yl)-5-[7-[(3S)-3-(ethoxymethyl)-3,4-dihydro-1H-isoquinoline-2-carbonyl]-2-[2-[2-fluoro-4-(2-morpholinoethoxy)phenyl]acetyl]-3,4-dihydro-1H-isoquinolin-6-yl]-N-(4-hydroxyphenyl)-1,2-dimethyl-pyrrole-3-carboxamide] the “Ratio (G101V/WT)” value [1] was 5.082, the IC50 [1] was 0.0248 µM and the Ki [2] was 0.36 nM. The Ki [3, 8] was 0.09 nM, the Ki [4] was 0.4 nM and the “TR_FRET EKI G101V/WT selectivty ratio” value [5] was 4.6. The Ki [6] was 1.2 nM, the “TR_FRET EKI BCLxL/WT selectivty ratio” value [6] was 12.8 and the IC50 [7] was 0.0049 µM.
With `Cc1c(N(C(=O)c2cc(-c3cc4c(cc3C(=O)N3Cc5ccccc5C[C@H]3COCC3CC3)CN(C(=O)Cc3ccc(OCCN5CCOCC5)cc3F)CC4)n(C)c2C)c2ccc(O)cc2)cc(C#N)n1C` [Example 170, N-(5-cyano-1,2-dimethyl-pyrrol-3-yl)-5-[7-[(3S)-3-(cyclopropylmethoxymethyl)-3,4-dihydro-1H-isoquinoline-2-carbonyl]-2-[2-[2-fluoro-4-(2-morpholinoethoxy)phenyl]acetyl]-3,4-dihydro-1H-isoquinolin-6-yl]-N-(4-hydroxyphenyl)-1,2-dimethyl-pyrrole-3-carboxamide] the “Ratio (G101V/WT)” value [1] was 6.4831, the IC50 [1] was 0.0306 µM and the Ki [2] was 1.06 nM. The Ki [3, 8] was 0.3 nM, the Ki [4] was 1.3 nM and the “TR_FRET EKI G101V/WT selectivty ratio” value [5] was 4.3. The Ki [6] was 4.5 nM, the “TR_FRET EKI BCLxL/WT selectivty ratio” value [6] was 15.0 and the IC50 [7] was 0.0047 µM.
For `Cc1c(N(C(=O)c2cc(-c3cc4c(cc3C(=O)N3Cc5ccccc5C[C@H]3CN3CCCC3)CN(C(=O)Cc3c(F)cc(OCCN5CCOCC5)cc3F)CC4)n(C)c2C)c2ccc(O)cc2)cc(C#N)n1C` [Example 171, N-(5-cyano-1,2-dimethyl-pyrrol-3-yl)-5-[2-[2-[2,6-difluoro-4-(2-morpholinoethoxy)phenyl]acetyl]-7-[(3S)-3-(pyrrolidin-1-ylmethyl)-3,4-dihydro-1H-isoquinoline-2-carbonyl]-3,4-dihydro-1H-isoquinolin-6-yl]-N-(4-hydroxyphenyl)-1,2-dimethyl-pyrrole-3-carboxamide], the “Ratio (G101V/WT)” value [1] was 4.7109, the IC50 [1] was 0.0603 µM and the Ki [2] was 0.09 nM. The Ki [3, 8] was 0.02 nM, the Ki [4] was 0.2 nM and the “TR_FRET EKI G101V/WT selectivty ratio” value [5] was 7.1. The Ki [6] was 1.3 nM, the “TR_FRET EKI BCLxL/WT selectivty ratio” value [6] was 61.9 and the IC50 [7] was 0.0128 µM.
For `COC[C@@H]1Cc2ccccc2CN1C(=O)c1cc2c(cc1-c1cc(C(=O)N(c3ccc(O)cc3)c3cc(C#N)n(C(F)F)c3C)c(C)n1C)CCN(C(=O)Cc1ccc(OCCN3CCOCC3)cc1)C2` [Example 172, N-[5-cyano-1-(difluoromethyl)-2-methyl-pyrrol-3-yl]-N-(4-hydroxyphenyl)-5-[7-[(3S)-3-(methoxymethyl)-3,4-dihydro-1H-isoquinoline-2-carbonyl]-2-[2-[4-(2-morpholinoethoxy)phenyl]acetyl]-3,4-dihydro-1H-isoquinolin-6-yl]-1,2-dimethyl-pyrrole-3-carboxamide], the “Ratio (G101V/WT)” value [1] was 4.6557, the IC50 [1] was 0.0284 µM and the Ki [2] was 0.39 nM. The Ki [3, 8] was 0.11 nM, the Ki [4] was 0.5 nM and the “TR_FRET EKI G101V/WT selectivty ratio” value [5] was 4.4. The Ki [6] was 3.2 nM, the “TR_FRET EKI BCLxL/WT selectivty ratio” value [6] was 29.1 and the IC50 [7] was 0.0061 µM.
For `Cc1c(N(C(=O)c2cc(-c3cc4c(cc3C(=O)N3Cc5ccccc5C[C@H]3CN3CCC5(CC5)C3)CN(C(=O)Cc3ccc(OCCN5CCOCC5)cc3F)CC4)n(C)c2C)c2ccc(O)cc2)cc(C#N)n1C` [Example 176, 5-[7-[(3S)-3-(5-azaspiro[2.4]heptan-5-ylmethyl)-3,4-dihydro-1H-isoquinoline-2-carbonyl]-2-[2-[2-fluoro-4-(2-morpholinoethoxy)phenyl]acetyl]-3,4-dihydro-1H-isoquinolin-6-yl]-N-(5-cyano-1,2-dimethyl-pyrrol-3-yl)-N-(4-hydroxyphenyl)-1,2-dimethyl-pyrrole-3-carboxamide], the “Ratio (G101V/WT)” value [1] was 6.4155, the IC50 [1] was 0.0596 µM and the Ki [2] was 0.16 nM. For the same molecule, the Ki [3, 8] was 0.03 nM, the Ki [4] was 0.2 nM and the “TR_FRET EKI G101V/WT selectivty ratio” value [5] was 5.8. The Ki [6] was 2.3 nM, the “TR_FRET EKI BCLxL/WT selectivty ratio” value [6] was 74.2 and the IC50 [7] was 0.0093 µM.
`Cc1ncc(N(C(=O)c2cc(-c3cc4c(cc3C(=O)N3Cc5ccccc5C[C@H]3CN3CCCCC3)CN(C(=O)Cc3ccc(OCCN5CCOCC5)cc3F)CC4)n(C)c2C)c2ccc(O)cc2)cc1C#N` [Example 177, N-(5-cyano-6-methyl-3-pyridyl)-5-[2-[2-[2-fluoro-4-(2-morpholinoethoxy)phenyl]acetyl]-7-[(3S)-3-(1-piperidylmethyl)-3,4-dihydro-1H-isoquinoline-2-carbonyl]-3,4-dihydro-1H-isoquinolin-6-yl]-N-(4-hydroxyphenyl)-1,2-dimethyl-pyrrole-3-carboxamide] was tested, and the “Ratio (G101V/WT)” value [1] was 11.238, the IC50 [1] was 0.0581 µM and the Ki [2] was 0.12 nM. The Ki [3, 8] was 0.05 nM, the Ki [4] was 0.5 nM and the “TR_FRET EKI G101V/WT selectivty ratio” value [5] was 10.0. The Ki [6] was 12.4 nM, the “TR_FRET EKI BCLxL/WT selectivty ratio” value [6] was 229.0 and the IC50 [7] was 0.0052 µM.
With `COc1ccc(N(C(=O)c2cc(-c3cc4c(cc3C(=O)N3Cc5ccccc5C[C@H]3CN(C)C(C)C)CN(C(=O)Cc3ccc(OCCN5CCOCC5)cc3F)CC4)n(C)c2C)c2ccc(O)cc2)cc1C#N` [Example 179, N-(3-cyano-4-methoxy-phenyl)-5-[2-[2-[2-fluoro-4-(2-morpholinoethoxy)phenyl]acetyl]-7-[(3S)-3-[[isopropyl(methyl)amino]methyl]-3,4-dihydro-1H-isoquinoline-2-carbonyl]-3,4-dihydro-1H-isoquinolin-6-yl]-N-(4-hydroxyphenyl)-1,2-dimethyl-pyrrole-3-carboxamide] the “Ratio (G101V/WT)” value [1] was 9.658, the IC50 [1] was 0.113 µM and the Ki [2] was 0.13 nM. The Ki [3, 8] was 0.04 nM, the Ki [4] was 0.6 nM and the “TR_FRET EKI G101V/WT selectivty ratio” value [5] was 14.7. For the same molecule, the Ki [6] was 6.1 nM, the “TR_FRET EKI BCLxL/WT selectivty ratio” value [6] was 148.0 and the IC50 [7] was 0.0117 µM.
With `Cc1c(N(C(=O)c2cc(-c3cc4c(cc3C(=O)N3Cc5ccccc5C[C@H]3CN)CN(C(=O)Cc3ccc(OCCN5CCOCC5)cc3F)CC4)n(C)c2C)c2ccc(O)cc2)cc(C#N)n1C` [Example 230] the “Ratio (G101V/WT)” value [1] was 2.7, the IC50 [1] was 0.964 µM and the Ki [2] was 0.066 nM. For the same molecule, the Ki [3, 9] was 0.014 nM, the Ki [4] was 0.067 nM and the “TR_FRET EKI G101V/WT selectivty” value [5] was 4.8. For the same molecule, the Ki [6] was 0.9 nM, the “TR_FRET EKI BCLxL/WT selectivty” value [6] was 64.3 and the IC50 [7] was 0.351 µM.
With `Cc1c(N(C(=O)c2cc(-c3cc4c(cc3C(=O)N3Cc5ccccc5C[C@H]3C)CN(C(=O)Cc3ccc(OCCNCCF)cc3)CC4)n(C)c2C)c2ccc(O)cc2)cc(C#N)n1C` [Example 235] the “Ratio (G101V/WT)” value [1] was 4.7, the IC50 [1] was 0.0968 µM and the Ki [2] was 0.11 nM. For the same molecule, the Ki [3, 9] was 0.031 nM, the Ki [4] was 0.13 nM and the “TR_FRET EKI G101V/WT selectivty” value [5] was 4.2. The Ki [6] was 0.89 nM, the “TR_FRET EKI BCLxL/WT selectivty” value [6] was 28.7 and the IC50 [7] was 0.0208 µM.

Source: patent publication US20250179047A1, “5-[7-(3,4-DIHYDRO-1H-ISOQUINOLINE-2-CARBONYL)-1,2,3,4 TETRAHYDROISOQUINOLIN-6-YL]-1H-PYRROLE-3-CARBOXAMIDE DERIVATIVES, PHARMACEUTICAL COMPOSITIONS CONTAINING THEM AND THEIR USES AS PRO-APOPTOTIC AGENTS” (LES LABORATOIRES SERVIER, priority 2022, published 2025)
